Patent US20190307783A1, “USE OF ANTIVIRALS TO INHIBIT PROTOZOAN VIRUSES” (priority 2016, published 2019)
“Also recorded” adds a separate entry of the source.

Biological target: Lgy LRV1 RDRP (Leishmania RNA virus 1 - 4, UniProt Q02382)
Assay: RDRP assay of purified virions, [α-32P]UTP incorporation
Assay type: biochemical, Leishmania RNA virus 1 (Lgy strain M4147)
Conditions: concentrations up to 1000 μM; listed as 2CMA
Experimental: RDRP assays were carried out with LRV1 virions purified from Lgy strain M4147 by an established cesium chloride (CsCl) equilibrium ultracentrifugation procedure {Widmer, 1989; Widmer, 1990}. Following separation, virus particles were detected and quantified by their reactivity with an anti-capsid antibody (FIG. 21). We reproducibly observed three overlapping ‘peaks’, designated low-, medium-, and high-density (LD, MD and HD) in order of increasing density. […] The densities of the Lgy LRV1 LD, MD and HD peaks were 1.29, 1.36 and 1.41 g/mL, in good agreement with the densities of L-A virus particles bearing ssRNA- and dsRNA- (1.31 and 1.41 g/mL, respectively) {Esteban, 1986}. […]
To measure RDRP activity, purified virions were allowed to incorporate [α-^32P]UTP in the presence of the remaining nucleoside triphosphates for 1 hour, a time chosen to allow one round of transcription or replication of the viral genome {Widmer, 1990}. RNA was purified and separated by native gel electrophoresis, and the products were visualized and quantified. […]
RDRP activity of purified virions was measured using an [α-^32P]UTP incorporation assay described previously{Widmer, 1990}. […] The standards lane was excised and stained with ethidium bromide, while the radiolabeled products were detected by exposing an imaging plate for 24 hours and reading it with a FLA-5100 phosphoimager (Fujifilm, Tokyo, Japan). […]

Sequence of Lgy LRV1 RDRP (Q02382 whole entry): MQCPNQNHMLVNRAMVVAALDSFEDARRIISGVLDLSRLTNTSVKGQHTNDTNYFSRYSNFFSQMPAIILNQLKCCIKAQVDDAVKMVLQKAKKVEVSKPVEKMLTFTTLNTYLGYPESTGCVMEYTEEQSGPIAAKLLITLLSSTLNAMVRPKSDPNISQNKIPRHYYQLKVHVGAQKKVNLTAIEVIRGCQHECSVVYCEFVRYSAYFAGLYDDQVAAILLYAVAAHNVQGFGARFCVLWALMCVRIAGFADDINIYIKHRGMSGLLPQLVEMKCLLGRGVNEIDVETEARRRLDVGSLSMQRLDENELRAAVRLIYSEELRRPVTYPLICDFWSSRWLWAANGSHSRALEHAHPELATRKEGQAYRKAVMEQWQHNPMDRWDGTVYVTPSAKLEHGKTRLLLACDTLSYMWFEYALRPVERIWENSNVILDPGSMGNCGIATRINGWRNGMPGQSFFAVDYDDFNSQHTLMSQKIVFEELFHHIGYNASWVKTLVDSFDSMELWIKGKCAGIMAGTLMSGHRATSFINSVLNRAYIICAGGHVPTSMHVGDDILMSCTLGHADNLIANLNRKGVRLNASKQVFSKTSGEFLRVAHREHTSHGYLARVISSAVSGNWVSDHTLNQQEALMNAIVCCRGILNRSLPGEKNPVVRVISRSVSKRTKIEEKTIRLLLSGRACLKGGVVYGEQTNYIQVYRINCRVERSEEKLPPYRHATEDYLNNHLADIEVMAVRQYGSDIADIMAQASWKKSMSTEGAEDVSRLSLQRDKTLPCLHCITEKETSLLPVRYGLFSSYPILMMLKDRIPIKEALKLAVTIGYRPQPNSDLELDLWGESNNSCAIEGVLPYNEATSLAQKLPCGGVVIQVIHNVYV

Question: How did the “Inhibition of RDRP activity, in words” value turn out when `C[C@@]1(O)[C@H](O)[C@@H](CO)O[C@H]1n1cnc2c(N)ncnc21` [2′C-methyadenosine, 2′-C-methyladenosine] was run?
Answer: did not measurably inhibit; also recorded: completely inactive
